From patent US20220125051A1, “PRE-HARVEST DESICCATION METHOD” (SYNGENTA CROP PROTECTION AG, priority 2019, published 2022)
Where a name gives a salt, the structure may show the parent alone. Read-outs that look alike come from different tables or passages of the source.

What was measured:
Assay in all cases: Post-emergence efficacy, Method A
Format in all cases: in vivo
Setaria faberi (SETFA) = conditions: Setaria faberi, post-emergence, 312 h, evaluated after 13 days
Summary of the method: (§1)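 Visual damage score, 0 (no damage) to 100 (total), taken 13 d after spraying. Pot-grown plants at 14 d post-sowing received an aqueous spray from a 50 g/l acetone/IF50 solution diluted in 0.25% or 1% Empicol ESC70 + 1% ammonium sulphate; glasshouse 24/16 °C, 14 h light, 65% RH, watered twice daily.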

[1] = test system: Chenopodium album (CHEAL); conditions: Chenopodium album, post-emergence, 312 h, evaluated after 13 days
Summary of the method: as §1

[2] = test system: Amaranthus palmeri (AMAPA); conditions: Amaranthus palmeri, post-emergence, 312 h, evaluated after 13 days
Summary of the method: as §1

[3] = test system: Ipomoea hederacea (IPOHE); conditions: Ipomoea hederacea, post-emergence, 312 h, evaluated after 13 days
Summary of the method: as §1

Lolium perenne (LOLPE) = conditions: Lolium perenne, post-emergence, 312 h, evaluated after 13 days
Summary of the method: as §1

[4] = test system: Digitaria sanguinalis (DIGSA); conditions: Digitaria sanguinalis, post-emergence, 312 h, evaluated after 13 days
Summary of the method: as §1

[5] = test system: Euphorbia heterophylla (EPHHL); conditions: Euphorbia heterophylla, post-emergence, 312 h, evaluated after 13 days
Summary of the method: as §1

Eleusine indica (ELEIN) = conditions: Eleusine indica, post-emergence, 312 h, evaluated after 13 days
Summary of the method: as §1

[6] = test system: Echinochloa crus-galli (ECHCG); conditions: Echinochloa crus-galli, post-emergence, 312 h, evaluated after 13 days
Summary of the method: as §1

[7] = Application rate 500 g/Ha, 100=total damage to plant, 0=no damage to plant, read-out: Control of weed species after post-emergence application, SETFA
[8] = Application rate 500 g/Ha, 100=total damage to plant, 0=no damage to plant, read-out: Control of weed species after post-emergence application, CHEAL
[9] = Application rate 500 g/Ha, 100=total damage to plant, 0=no damage to plant, read-out: Control of weed species after post-emergence application, AMAPA
[10] = Application rate 500 g/Ha, 100=total damage to plant, 0=no damage to plant, read-out: Control of weed species after post-emergence application, IPOHE
[11] = Application rate 500 g/Ha, 100=total damage to plant, 0=no damage to plant, read-out: Control of weed species after post-emergence application, LOLPE
[12] = Application rate 500 g/Ha, 100=total damage to plant, 0=no damage to plant, read-out: Control of weed species after post-emergence application, DIGSA
[13] = Application rate 500 g/Ha, 100=total damage to plant, 0=no damage to plant, read-out: Control of weed species after post-emergence application, EPHHL
[14] = Application rate 500 g/Ha, 100=total damage to plant, 0=no damage to plant, read-out: Control of weed species after post-emergence application, ELEIN
[15] = Application rate 500 g/Ha, 100=total damage to plant, 0=no damage to plant, read-out: Control of weed species after post-emergence application, ECHCG
[16] = Application Rate 500 g/Ha, Method A, read-out: Control of weed species after post-emergence application, SETFA (100=total damage to plant; 0=no damage to plant)
[17] = Application Rate 500 g/Ha, Method A, read-out: Control of weed species after post-emergence application, CHEAL (100=total damage to plant; 0=no damage to plant)
[18] = Application Rate 500 g/Ha, Method A, read-out: Control of weed species after post-emergence application, AMAPA (100=total damage to plant; 0=no damage to plant)
[19] = Application Rate 500 g/Ha, Method A, read-out: Control of weed species after post-emergence application, IPOHE (100=total damage to plant; 0=no damage to plant)
[20] = Application Rate 500 g/Ha, Method A, read-out: Control of weed species after post-emergence application, LOLPE (100=total damage to plant; 0=no damage to plant)
[21] = Application Rate 500 g/Ha, Method A, read-out: Control of weed species after post-emergence application, DIGSA (100=total damage to plant; 0=no damage to plant)
[22] = Application Rate 500 g/Ha, Method A, read-out: Control of weed species after post-emergence application, EPHHL (100=total damage to plant; 0=no damage to plant)
[23] = Application Rate 500 g/Ha, Method A, read-out: Control of weed species after post-emergence application, ELEIN (100=total damage to plant; 0=no damage to plant)
[24] = Application Rate 500 g/Ha, Method A, read-out: Control of weed species after post-emergence application, ECHCG (100=total damage to plant; 0=no damage to plant)

SMILES	pest or weed control at 500 g/ha (Setaria faberi (SETFA); [7])	pest or weed control at 500 g/ha [1, 8]	pest or weed control at 500 g/ha [2, 9]	pest or weed control at 500 g/ha [3, 10]	pest or weed control at 500 g/ha (Lolium perenne (LOLPE); [11])	pest or weed control at 500 g/ha [4, 12]	pest or weed control at 500 g/ha [5, 13]	pest or weed control at 500 g/ha (Eleusine indica (ELEIN); [14])	pest or weed control at 500 g/ha [6, 15]	pest or weed control at 500 g/ha (Setaria faberi (SETFA); [16])	pest or weed control at 500 g/ha [1, 17]	pest or weed control at 500 g/ha [2, 18]	pest or weed control at 500 g/ha [3, 19]	pest or weed control at 500 g/ha (Lolium perenne (LOLPE); [20])	pest or weed control at 500 g/ha [4, 21]	pest or weed control at 500 g/ha [5, 22]	pest or weed control at 500 g/ha (Eleusine indica (ELEIN); [23])	pest or weed control at 500 g/ha [6, 24]
Cc1cnc(-c2cc[n+](CCC(=O)O)nc2)c(Cl)c1 [Compound A137]	40%	20%	60%	10%	20%	40%	20%	40%	30%									
O=S(=O)([O-])CC[n+]1ccc(-c2nccc(C3CC3)n2)cn1 [Compound A50]	60%	20%	100%	50%	60%	50%	90%	90%	40%									
CC(=O)c1ccnc(-c2cc[n+](CCS(=O)(=O)[O-])nc2)n1 [Compound A49]	100%	80%	100%	60%	50%	90%	70%	100%	60%									
O=S(=O)([O-])CC[n+]1ccc(-c2cncc(C(F)(F)F)n2)cn1 [Compound A110]	50%	100%	100%	80%	50%	40%	80%	90%	50%									
O=S(=O)([O-])CC[n+]1ccc(-c2ncc(F)cc2F)cn1 [Compound A70]	30%	70%	90%	20%	20%	30%	50%	20%	30%									
COC(=O)CC[n+]1ccc(-c2cccnn2)cn1 [Compound A139]	100%	100%	80%	10%	90%	100%	90%	100%	100%									
O=C(O)CC[n+]1ccc(-c2ncc(C(F)(F)F)cn2)cn1 [Compound A129]	60%	50%	70%	10%	80%	60%	70%	40%	90%									
COC(=O)C(C)[n+]1ccc(-c2ncccn2)cn1 (stereo not drawn) [Compound A192]										20%	60%	90%	30%	10%	30%	40%	30%	30%
O=C(O)CC[n+]1ccc(-c2ncc(CO)cn2)cn1 [Compound A162]										70%	70%	100%	10%	90%	70%	80%	80%	90%
Cc1cc(F)cnc1-c1cc[n+](CCS(=O)(=O)[O-])nc1 [Compound A104]	30%	0%	10%	30%	10%	30%	20%	50%	30%									
COc1ccnc(-c2cc[n+](CCC(=O)[O-])nc2)n1 [Compound A101]	80%	70%	80%	10%	70%	60%	80%	40%	60%									
CC(C)(CC(=O)O)[n+]1ccc(-c2ccncn2)cn1 [Compound A189]										70%	100%	100%	70%	30%	50%	90%	90%	80%
CCOP(=O)(O)CC[n+]1ccc(-c2ncccn2)cn1 [Compound A113, ethoxy-[2-(4-pyrimidin-2-ylpyridazin-1-ium-1-yl)ethyl]phosphinate]	50%	90%	40%	60%	10%	60%	100%	40%	60%									
O=S(=O)([O-])OCC[n+]1ccc(-c2ncccn2)cn1 [Compound A194, 2-(4-pyrimidin-2-ylpyridazin-1-ium-1-yl)ethyl sulfate]										50%	70%	100%	60%	50%	50%	70%	90%	70%
O=S(=O)([O-])CC[n+]1ccc(-c2ccc(C(F)(F)F)cn2)cn1 [Compound A174]										60%	40%	100%	50%	60%	50%	60%	60%	50%
